In patent US4481193A, “Des-proline vasopressin antagonists” (SmithKline Beckman Corporation, priority 1984, dated 1984):
*1 amine or outer side, *2 acyl side, *3 side chain or, on linkers, in order; H or OH if unused. Where a SMILES comes first, the peptide text is derived from it. Bridges are numbered along the chain shown (N, C = ends). [ ]: non-standard residue; d: D form. X1 = O=C(CC1(S[*:2])CCCCC1)[*:1]

Tests used:
hydropenic rat = experiment: Hydropenic rat screen (anti-ADH activity in vivo); conditions: estimated dose delivered ip which reduces Uosm from hydropenic levels to 300 mOsmoles/kg H2O; male rats
Method: (§1) Antagonistic activity toward the natural antidiuretic hormone (anti-ADH activity) is determined, in vitro, in the medullary tissue of hog or human kidneys and, in vivo, in the hydropenic rat. The in vitro assay procedures for vasopressin stimulated adenylate cyclase activation or vasopression binding activity are described by F. Stassen et al., J. Pharmacology and Experimental Therapeutics, 223, 50-54 (1982).
The assay for anti-ADH activity is the hydropenic rat protocol is described below:
Food and water are removed from male rats approximately 18 hours prior to testing. Animals are housed 4 per metabolism cage. At 0 hour, the test compound is administered intraperitoneally to the test group and an equivalent volume of vehicle is administered to both control groups (fasted and non-fasted). Urine volume and osmolality are measured every hour for 4 hours. Test values are recorded as ml of urine excreted (cumulative), mEq/rat electrolyte excreted, mg/rat urea excreted, and osmolality in milli-Osmoles/kg H2 O. A tolerance test is used to determine significance. ED300 is defined as the dose of compound (μg/kg) required to lower urine osmolality to 300 m-Osmoles/kg.

[1] = molecular target: T1, vasopressin receptors (V2 -receptors) (Sus scrofa, UniProt P32307); experiment: 3H-vasopressin binding assay, hog kidney membranes; conditions: competitive inhibition of 3H-vasopressin binding, KB = IC50/(1+L/KD), read-out: In Vitro (Pig) KB
T1 construct: from tissue; host or cells: hog kidney medullary membranes
Method: as §1
In the test procedure for binding assays, the amount of ^3 H-vasopressin bound in the absence and in the presence of an excess of vasopressin (7.5×10^-6 M) is measured in triplicate. These values represent total and non-specific binding, respectively. […] This is the average KD value determined on 3 preparations of hog kidney membranes.

[2] = molecular target: T2, vasopressin stimulated adenylate cyclase (Homo sapiens, UniProt P30518); experiment: Vasopressin stimulated adenylate cyclase activity, human kidney medullary tissue; assay type: biochemical; conditions: read-out: In Vitro (Human) Ki
T2 construct: from tissue; host or cells: human kidney medullary membranes
Method: as §1

[3] = molecular target: T3, vasopressin stimulated adenylate cyclase (Sus scrofa, UniProt P32307); experiment: Vasopressin stimulated adenylate cyclase activity, hog kidney medullary membrane; assay type: biochemical; conditions: antagonism of vasopressin stimulated adenylate cyclase, read-out: In Vitro (Pig) Ki
T3 construct: from tissue; host or cells: hog kidney medullary membranes
Method: as §1
In the test procedure for assay of adenylate cyclase activity, the amount of ^32 P/cAMP formed in the absence of medullary membrane is determined (blank). The blank value is substracted from all experimental data. The compound is tested for its effect on basal adenylate cyclase activity and/or on vasopressin stimulated activity. Each determination is carried out in triplicate. The Ka value is derived from a Lineweaver-Burkeplot. Rel. Vmax =(Vmax drug/Vmax vasopressin)×100. Ki =I/[Ka'/Ka)-1] where I is the concentration of the antagonist, and Ka' and Ka are the concentrations of vasopressin required to give half-maximal activity of adenylate cyclase in the presence and absence of antagonist, respectively.

T3 sequence (P32307 whole entry): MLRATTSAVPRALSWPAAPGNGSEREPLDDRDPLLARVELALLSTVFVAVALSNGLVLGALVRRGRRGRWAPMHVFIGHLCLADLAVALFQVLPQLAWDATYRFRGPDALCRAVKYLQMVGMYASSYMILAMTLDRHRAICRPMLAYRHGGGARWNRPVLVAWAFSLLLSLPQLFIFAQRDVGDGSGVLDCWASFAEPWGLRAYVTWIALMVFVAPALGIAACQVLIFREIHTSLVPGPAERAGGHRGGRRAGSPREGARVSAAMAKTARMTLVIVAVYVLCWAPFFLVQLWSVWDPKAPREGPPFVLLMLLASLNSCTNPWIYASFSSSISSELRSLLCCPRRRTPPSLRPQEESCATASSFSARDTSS
T1 sequence (P32307 whole entry): as above
T2 sequence (P30518 whole entry): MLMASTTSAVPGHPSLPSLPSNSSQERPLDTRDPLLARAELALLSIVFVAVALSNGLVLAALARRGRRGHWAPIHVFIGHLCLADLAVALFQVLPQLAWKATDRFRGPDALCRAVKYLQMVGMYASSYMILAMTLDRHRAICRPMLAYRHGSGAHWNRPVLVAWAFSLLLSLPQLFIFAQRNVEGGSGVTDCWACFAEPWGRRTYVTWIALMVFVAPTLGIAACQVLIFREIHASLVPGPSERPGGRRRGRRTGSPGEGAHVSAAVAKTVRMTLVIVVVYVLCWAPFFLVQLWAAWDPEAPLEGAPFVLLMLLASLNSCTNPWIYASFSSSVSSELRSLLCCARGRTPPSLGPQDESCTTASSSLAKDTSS

SMILES	In Vivo (Rat) ED300 (hydropenic rat)	Kb [1]	Ki [2]	Ki [3]
CCOc1ccc(C[C@H]2NC(=O)CC3(CCCCC3)SSC[C@@H](C(=O)N3CCC[C@H]3C(=O)N[C@@H](CCCNC(=N)N)C(=O)NCC(N)=O)NC(=O)[C@H](CC(N)=O)NC(=O)[C@H](C(C)C)NC(=O)[C@H](Cc3ccccc3)NC2=O)cc1 [B, [mercapto-β,cyclopentamethylenepropionic acid)2-(O--ethylD-tyrosine)-4-valine-8-argininevasopressin] ([dY](Et)FVNCPRG-NH2; linker N-5 via X1 (inferred); C-terminus assumed)	0.011 mg/kg			
CCOc1ccc(C[C@H]2NC(=O)CC3(CCCCC3)SSC[C@@H](C(=O)N[C@@H](CCCN=C(N)N)C(=O)NCC(N)=O)NC(=O)[C@H](CC(N)=O)NC(=O)[C@H](C(C)C)NC(=O)[C@H](Cc3ccccc3)NC2=O)cc1 [A] ([dY](Et)FVNCRG-NH2; linker N-5 via X1)		17 nM	9.8 nM	2.7 nM
